Laboratory results: patent US20250312269A1, “ADMINISTRATION OF A P[…] BY INT[…]” (RESET PHARMACEUTICALS, INC., priority 2022, published 2025)
Like-named read-outs stand apart in the source and are kept apart here.

Columns and labels:
[1] = Particle size distribution (PSD) analysis by laser diffraction of feed and micronised compound; assay type: physicochemical; conditions: primary pressure of 4 bar, lens R1/R3/R5 per sample
Procedure: In order to provide a small and homogeneous particle size of psychedelic compound in the final suspensions, psilocybin and psilocin were micronised before use. Micronisation was performed by wet bead milling using decafluoropentane as the antisolvent. In a glass vial, 200 mg psychedelic compound and 2 g of 1 mm silica beads were weighed. 3 mL of the antisolvent was added for psilocybin and 2 mL for psilocin. The samples were vortexed for approximately 15 seconds then milled at 530 rpm for 60 minutes.
(§1) The micronised sample was then separated from the silica beads and transferred to a petri dish and left at room temperature to allow for evaporation of the solvent overnight (approximately 18 hours). The dried sample was then collected and characterised by PSD and XRPD.
Particle size analysis was carried out, in single analysis, by laser diffraction using a Sympatec Helos particle size analyser, equipped with a RODOS dry dispersion unit and ASPIROS feeder unit. The lens and primary pressures were varied for each compound tested.

[2] = Solubility assessment in excipients / vehicles
[3] = cited from earlier work
[4] = IV administration; cited from earlier work
[5] = XRPD analysis after micronisation; assay type: physicochemical; conditions: wet bead milling in decafluoropentane
Procedure: as §1
X-ray powder diffraction (XRPD) analysis was carried out using a Bruker D2 Phaser powder diffractometer equipped with a LynxEye detector. The specimens were located at the centre of a silicon sample holder within a 5 mm pocket. The samples were continuously spun during data collection and scanned using a step size of 0.02° two theta (28) between […] to 60° two theta, the detailed parameters are summarised in Table 11. The data was processed using Diffrac Plus EVA software (Version 3.1).

[6] = Two-compartment IV bolus PK model fitted to published psilocin plasma data after psilocybin IV; set-up: species or system human; conditions: estimate (95% CI)
Procedure: All analysis was performed using the software R and RStudio, with models being defined using analytical and ODE solutions.
Systemic PK parameters were derived for published human bolus psilocybin IV data. Human IV PK data for psilocin after psilocybin was administered was taken from Hasler et al. “Determination of psilocin and 4-hydroxyindole-3-acetic acid in plasma by HPLC-ECD and pharmacokinetic profiles of oral and intravenous psilocybin in man”. Pharm Acta Helv. 1997 June; 72(3):175-84. Model selection was performed by assessing visual fit to data and the respective model AIC's of a one compartment and two compartment IV PK model. These systemic human PK parameters were then used for human intramuscular injection simulations by simulating the PK profiles over a range of doses and absorption rates.
It is assumed that the generation of psilocin is instantaneous and complete once psilocybin is absorbed.
An IV two compartment model best described the IV data from FIG. 2. A two-compartment model gave a good description of the raw data capturing the Cmax and terminal phase well, FIG. 3. The systemic PK parameters can be seen in Table 1 and there are low errors in the parameter estimates.

[7] = Human IM simulations of psilocin exposure, one (native) absorption rate; conditions: 'native' absorption rate taken from DMT IM model
Procedure: The model that was used is shown schematically in FIG. 6, mathematically the analytical solution is shown in equations (9)-(14).
Using the absorption rate from modelling the IM DMT data and the human systemic psilocin PK parameters, human IM simulations were run over 1-12 mg doses and the simulated PK profiles can be seen in FIG. 8. […] It was therefore investigated which dose produces the therapeutic plasma level (5 ng/mL) quickly, this can be seen in Table 4.

[8] = One-compartment IM PK model fitted to published DMT IM data; set-up: species or system human; conditions: estimate (95% CI)
Text: (§2) DMT IM data was digitised from Kaplan et al. “Blood and urine levels of N,N-dimethyltryptamine following administration of psychoactive dosages to human subjects” Psychopharmacologia 38, 239-245 (1974). A one compartment model was used with linear absorption and clearance to describe the human IM data from Kaplan et al. 1974, and is shown schematically in FIG. 3. Mathematically, this model is a series of two linked ordinary differential equations (ODE's) given in equations (7)-(8).
Constant ka is the absorption rate constant (units 1/min), Cl is the clearance (units mL/min), Vc is the volume of distribution of the central compartment (units mL).
The model gives a satisfactory fit of the absorption phase, seen in FIG. 5, where the line is the simulate PK model and the points are the raw data. The fitted PK parameters can be found in Table 3.

[9] = Non-compartmental analysis of DMT IM bioavailability from digitised published data; assay type: in vivo; conditions: human, blood, intramuscular, 0.7 mg/kg, 0.7 mg/kg IM
Text: as §2
The points are the mean data, and the error bars are plus and minus the SEM. Non-compartmental analysis (NCA) was run to calculate the dose normalised AUC at four dose levels. The bioavailability of the IM data was then calculated, equation (3), at all four dose levels seen in Table 2, due to the IM dose being 0.7 mg/kg the 0.4 mg/kg bioavailability values were taken and therefore bioavailability was assumed to be one for the rest of the modelling.

## CN(C)CCc1c[nH]c2cccc(OP(=O)(O)O)c12 [Feed psilocybin, psilocybin]
[1]
  D10: 1.16 μm
  D50: 5.46 μm
  D90: 16.32 μm

## CN(C)CCc1c[nH]c2cccc(OP(=O)(O)O)c12 [psilocybin, [3-(2-dimethylaminoethyl)-1H-indol-4-yl]dihydrogen phosphate]
[2]; non-micronised, 20 excipients
  solubility in all the excipients tested: poor solubility
[3]; oral dosing
  duration: 4 to 8 h
  maximum effect (time): 60 to 90 min
  onset of action: 20 to 40 min
[3]; reported, oral dosing context
  bioavailability: approximately 50%
[4]
  duration of the psychological effects: 20 minutes
  onset of action: 1 to 2 min
[5]
  chemical degradation upon micronisation (XRPD): no significant chemical degradation

## CN(C)CCc1c[nH]c2cccc(O)c12 [Micronised psilocin, psilocin]
[1]
  D10: 0.44 μm
  D50: 1.07 μm
  D90: 2.27 μm

## CN(C)CCc1c[nH]c2cccc(O)c12 [psilocin, 4-hydroxy-N,N-dimethyltryptamine]
[6]; clearance, fit to 1 mg psilocybin IV data
  CI: 3810 (3340, 4290) ml/min
[6]; distribution rate from peripheral compartment
  k21: 0.0489 (0.0388, 0.0591) /min
[6]; distribution rate to peripheral compartment
  k12: 0.176 (0.144, 0.208) /min
[6]; volume of distribution of central compartment, fit to 1 mg psilocybin IV data
  V: 88600 (77300, 99900) ml
[2]; initial solution trials in aqueous vehicles
  solubility versus pH: higher solubility at acidic pH
[2]; non-micronised
  solubility in DMSO and NMP: good solubility
[7]
  absorption half-life: 4.53 min
[5]
  chemical degradation upon micronisation (XRPD): no significant chemical degradation

## CN(C)CCc1c[nH]c2cccc(OP(=O)(O)O)c12 [Micronised psilocybin, psilocybin]
[1]
  D10: 0.45 μm
  D50: 1.20 μm
  D90: 3.13 μm

## CN(C)CCc1c[nH]c2ccccc12 [DMT, N,N-dimethyltryptamine]
[8]; absorption rate constant
  ka: 0.153 (−0.311, 0.616) ^ /min
[8]; clearance
  CI: 21900 (4690, 39100) ml/min
[8]; 0.7 mg/kg IM
  V: 353000 (−397000, 1100000) ml
[9]; AUC of IV infusion dose 0.05 mg/kg
  bioavailability: 46.3%
[9]; AUC of IV infusion dose 0.1 mg/kg
  bioavailability: 77.8%
[9]; AUC of IV infusion dose 0.2 mg/kg
  bioavailability: 132%
[9]; AUC of IV infusion dose 0.4 mg/kg
  bioavailability: 162%

## CN(C)CCc1c[nH]c2cccc(O)c12 [Feed psilocin, psilocin]
[1]
  D10: 20.36 μm
  D50: 106.05 μm
  D90: 232.08 μm
